Assay results published in paper PMC5041986 (Oncotarget, 2016).
Read-outs that look alike come from different tables or passages of the source.

Assays:
RT-112 cells [1] = test: MTT cell viability assay; format: cell-based; details: 72 h; for Viability (% of control cells) RT-112 (5 μM) / Viability (% of control cells) RT-112 (10 μM): mean
Procedure: (§3) Cells were seeded in 96-well plates and exposed to DMSO, or indicated compounds for 72 hours. Cell viability was assessed using the 3-(4,5-dimethylthiazol-2-yl)-2,5-diphenyltetrazolium bromide (MTT) assay as described previously [46]. Briefly, 100 μl of 0.5 mg/ml MTT were added to each well and incubated at 37°C for 1 hour. After that, 100 μl of extraction reagents (0.1 M sodium acetate buffer for suspension cells or DMSO for attached cells) were added to each well to lyse cells and absorbance at 550 nm was measured. Cell viability was expressed as the percentage of surviving cells in drug-treated versus DMSO-treated control cells (which was considered as 100% viability).

PLC/PRF/5 cells = test: MTT cell viability assay; format: cell-based; details: 72 h; for Viability (% of control cells) PLC5/PRF/5 (5 μM): mean
Procedure: as §3

Hep3B cells = test: MTT cell viability assay; format: cell-based; details: 72 h, mean
Procedure: as §3

SNU-16 cells = test: MTT cell viability assay; format: cell-based; details: 72 h; for Viability (% of control cells) SNU-16 (5 μM): mean
Procedure: as §3

HUVEC = test: MTT cell viability assay; format: cell-based; details: Homo sapiens, HUVEC (normal cell), 72 h
Procedure: as §3

RT-112 cells [2] = test: Flow cytometric cell cycle analysis; format: cell-based; details: flow cytometry; for G0/G1 cell cycle arrest: 4 μM, 24 h; for accumulation of the sub-G1 phase (apoptotic cell death): 48 h to 72 h
Procedure: Cells were seeded in 6-well plates and treated with DMSO or indicated compounds at various concentrations for the indicated times. After treatment, the cells were harvested by trypsinization, washed with PBS, and the pellets were fixed in ice-cold 70% ethanol at -20°C overnight. After centrifugation, the cells were incubated for 15 minutes at room temperature in 0.1 mL of phosphate-citric acid buffer (0.2 M NaHPO4, 0.1 M citric acid, and pH 7.8) and then stained with propidium iodide staining buffer containing Triton X-100 (0.1%, v/v), RNase A (100 μg/mL), and propidium iodide (80 μg/mL) for 30 minutes in the dark. DNA contents were analyzed by flow cytometry with CellQuest software (Becton Dickinson, Mountain View, CA, USA). The results were obtained from three independent experiments and the representative data were shown in Supplementary Figure S8 and S9.

RT-112 tumor xenografts = test: RT-112 xenograft model; format: in vivo; details: for tumor growth inhibition (% TGI): ip, nude mice
Procedure: Tumors were measured weekly using calipers. Tumor volume (mm^3) was calculated from w^2×l/2 (w = width, l= length in mm of the tumor).

RT4 cells = test: MTT cell viability assay; format: cell-based; details: Homo sapiens, RT-4, RT4 (bladder), 72 h
Procedure: as §3

T24 cells = test: MTT cell viability assay; format: cell-based; details: Homo sapiens, T-24, T24 (bladder), 72 h
Procedure: as §3

HepG2 cells = test: MTT cell viability assay; format: cell-based; details: Homo sapiens, HepG2 (liver), 72 h
Procedure: as §3

KMS-11 cells = test: MTT cell viability assay; format: cell-based; details: Homo sapiens, KMS-11 (myeloma), 72 h
Procedure: as §3

RPMI-8226 cells = test: MTT cell viability assay; format: cell-based; details: Homo sapiens, RPMI-8226 (myeloma), 72 h
Procedure: as §3

FUDDLS cells = test: MTT cell viability assay; format: cell-based; details: Homo sapiens, FUDDLS (sarcoma), 72 h
Procedure: as §3

HCT-116 cells = test: MTT cell viability assay; format: cell-based; details: Homo sapiens, HCT-116 (colorectal), 72 h
Procedure: as §3

A549 cells = test: MTT cell viability assay; format: cell-based; details: Homo sapiens, A549 (lung), 72 h
Procedure: as §3

MCF-7 cells = test: MTT cell viability assay; format: cell-based; details: Homo sapiens, MCF7, MCF-7 (breast), 72 h
Procedure: as §3

MDA-MB-231 cells = test: MTT cell viability assay; format: cell-based; details: Homo sapiens, MDA-MB-231 (breast), 72 h
Procedure: as §3

[3] = test system: FGFR-dependent versus FGFR-independent cells; test: MTT cell viability assay, mean over cell line panel; format: cell-based
[4] = test system: phosphorylation of FGFR1, FGFR3, FRS2, ERK and AKT in RT-112 cells; test: Western blot of FGFR signaling; format: cell-based
Procedure: (§1) Cells were seeded and treated with indicated compounds at various concentrations for the indicated times. After treatment, cells were harvested by scraping with RIPA buffer containing protease inhibitors and phosphatase inhibitors (Roche Diagnostics Corp., Indianapolis, IN, USA). Total cell lysates were centrifuged at 13,000 g for 30 min and equal amounts of protein were separated by SDS–PAGE and immunoblotted with specific antibodies as previous described. The cells were allowed to recover for 24 h before following treatment. The small interfering RNA (siRNA) for Atg5 (HSS114103, HSS114104, HSS190366), and negative control (siCTL) were purchased from Invitrogen (Carlsbad, CA, USA). Transient transfection was performed by using lipofectamine 2000 according to the manufacture's instructions.

RT-112 cells [5] = test: SA-β-galactosidase staining (senescence); format: cell-based
Procedure: Cells were seeded in 6-well plates and treated with indicated agents for 24h. Senescence was measured by Senescence β-Galactosidase Staining Kit according to the manufacture's instruction (Cell Signaling Technology, Danvers, MA, USA).

[6] = test system: LC3B-I to LC3B-II conversion in RT-112 cells; test: Western blot of autophagy marker LC3B; format: cell-based
Procedure: as §1

CSF1R = biological target: T1, CSF1R (Homo sapiens, UniProt P07333); test: KINOMEscan competition-binding assay
T1 construct: purchased DiscoverRx (KINOMEscan service)
Procedure: (§2) The screening is based on a competition-binding assay and the K d values were determined as described previously.

Erbb2 = biological target: T2, Erbb2 (Homo sapiens, UniProt P04626); test: KINOMEscan competition-binding assay
T2 construct: purchased DiscoverRx (KINOMEscan service)
Procedure: as §2

FGFR1 = biological target: T3, FGFR1 (Homo sapiens, UniProt P11362); test: KINOMEscan competition-binding assay
T3 construct: purchased DiscoverRx (KINOMEscan service)
Procedure: as §2

FGFR2 = biological target: T4, FGFR2 (Homo sapiens, UniProt P21802); test: KINOMEscan competition-binding assay
T4 construct: purchased DiscoverRx (KINOMEscan service)
Procedure: as §2

FGFR3 = biological target: T5, FGFR3 (Homo sapiens, UniProt P22607); test: KINOMEscan competition-binding assay
T5 construct: purchased DiscoverRx (KINOMEscan service)
Procedure: as §2

FGFR4 = biological target: T6, FGFR4 (Homo sapiens, UniProt P22455); test: KINOMEscan competition-binding assay
T6 construct: purchased DiscoverRx (KINOMEscan service)
Procedure: as §2

FLT3 = biological target: T7, FLT3 (Homo sapiens, UniProt P36888); test: KINOMEscan competition-binding assay
T7 construct: purchased DiscoverRx (KINOMEscan service)
Procedure: as §2

PDGFRB = biological target: T8, PDGFRB (Homo sapiens, UniProt P09619); test: KINOMEscan competition-binding assay
T8 construct: purchased DiscoverRx (KINOMEscan service)
Procedure: as §2

TYK2 = biological target: T9, TYK2 (Homo sapiens, UniProt P29597); test: KINOMEscan competition-binding assay
T9 construct: purchased DiscoverRx (KINOMEscan service)
Procedure: as §2

VEGFR2 = biological target: T10, VEGFR2 (Homo sapiens, UniProt P35968); test: KINOMEscan competition-binding assay
T10 construct: purchased DiscoverRx (KINOMEscan service)
Procedure: as §2

T10 sequence (P35968 20-1356): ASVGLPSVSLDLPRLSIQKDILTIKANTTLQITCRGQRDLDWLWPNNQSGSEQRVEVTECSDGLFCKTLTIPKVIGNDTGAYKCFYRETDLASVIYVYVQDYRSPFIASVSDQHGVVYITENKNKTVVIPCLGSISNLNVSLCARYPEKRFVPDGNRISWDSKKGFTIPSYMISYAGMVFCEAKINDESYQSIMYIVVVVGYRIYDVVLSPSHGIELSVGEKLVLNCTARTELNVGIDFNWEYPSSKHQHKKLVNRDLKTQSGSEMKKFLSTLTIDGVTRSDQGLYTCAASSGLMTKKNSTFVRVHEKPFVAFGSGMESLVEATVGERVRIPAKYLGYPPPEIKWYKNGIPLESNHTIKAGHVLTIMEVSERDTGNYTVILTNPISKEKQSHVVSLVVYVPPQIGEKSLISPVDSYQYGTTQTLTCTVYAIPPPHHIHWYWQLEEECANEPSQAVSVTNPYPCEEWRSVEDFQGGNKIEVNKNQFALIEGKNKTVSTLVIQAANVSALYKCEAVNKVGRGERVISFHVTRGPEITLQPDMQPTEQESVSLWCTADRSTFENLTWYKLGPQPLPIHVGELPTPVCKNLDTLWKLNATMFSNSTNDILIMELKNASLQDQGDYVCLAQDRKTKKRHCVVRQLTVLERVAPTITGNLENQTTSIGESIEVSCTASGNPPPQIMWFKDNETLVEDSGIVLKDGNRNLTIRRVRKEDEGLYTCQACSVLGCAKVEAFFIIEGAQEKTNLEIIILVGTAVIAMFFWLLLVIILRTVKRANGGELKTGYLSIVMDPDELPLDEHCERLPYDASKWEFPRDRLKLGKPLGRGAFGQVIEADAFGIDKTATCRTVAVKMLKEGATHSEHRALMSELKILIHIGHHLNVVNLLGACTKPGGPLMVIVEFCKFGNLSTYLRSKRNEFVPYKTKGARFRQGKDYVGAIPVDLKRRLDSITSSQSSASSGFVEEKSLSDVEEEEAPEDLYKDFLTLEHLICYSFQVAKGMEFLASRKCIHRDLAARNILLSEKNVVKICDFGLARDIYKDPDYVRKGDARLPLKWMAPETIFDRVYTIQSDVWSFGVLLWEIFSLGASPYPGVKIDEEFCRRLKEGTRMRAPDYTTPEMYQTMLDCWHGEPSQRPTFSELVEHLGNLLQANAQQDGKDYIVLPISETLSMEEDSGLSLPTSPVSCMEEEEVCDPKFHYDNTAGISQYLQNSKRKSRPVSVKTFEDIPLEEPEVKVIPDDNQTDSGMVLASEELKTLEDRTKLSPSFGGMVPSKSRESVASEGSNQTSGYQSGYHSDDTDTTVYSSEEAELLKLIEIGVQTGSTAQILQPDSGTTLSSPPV
T3 sequence (P11362 22-822): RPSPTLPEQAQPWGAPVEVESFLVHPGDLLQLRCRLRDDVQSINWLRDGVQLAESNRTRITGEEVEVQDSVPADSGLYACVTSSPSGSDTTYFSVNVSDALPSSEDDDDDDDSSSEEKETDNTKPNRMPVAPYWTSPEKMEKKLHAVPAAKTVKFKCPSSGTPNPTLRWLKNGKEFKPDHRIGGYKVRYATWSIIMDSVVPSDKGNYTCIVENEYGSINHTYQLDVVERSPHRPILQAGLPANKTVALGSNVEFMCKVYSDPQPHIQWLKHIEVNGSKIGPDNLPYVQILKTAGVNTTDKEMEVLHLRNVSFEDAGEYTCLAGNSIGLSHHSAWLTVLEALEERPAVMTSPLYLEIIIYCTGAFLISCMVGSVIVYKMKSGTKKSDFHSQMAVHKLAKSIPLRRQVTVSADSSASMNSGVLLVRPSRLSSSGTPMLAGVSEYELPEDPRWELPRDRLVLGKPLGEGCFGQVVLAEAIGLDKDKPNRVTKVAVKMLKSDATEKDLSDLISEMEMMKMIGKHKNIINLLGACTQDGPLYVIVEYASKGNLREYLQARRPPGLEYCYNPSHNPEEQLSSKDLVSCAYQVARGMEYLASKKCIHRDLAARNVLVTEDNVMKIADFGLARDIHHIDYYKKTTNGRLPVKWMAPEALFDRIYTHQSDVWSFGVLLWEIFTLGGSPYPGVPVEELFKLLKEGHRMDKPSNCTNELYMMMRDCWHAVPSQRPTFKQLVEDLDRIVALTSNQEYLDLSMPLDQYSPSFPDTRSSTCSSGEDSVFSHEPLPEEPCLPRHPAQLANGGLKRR
T9 sequence (P29597 whole entry): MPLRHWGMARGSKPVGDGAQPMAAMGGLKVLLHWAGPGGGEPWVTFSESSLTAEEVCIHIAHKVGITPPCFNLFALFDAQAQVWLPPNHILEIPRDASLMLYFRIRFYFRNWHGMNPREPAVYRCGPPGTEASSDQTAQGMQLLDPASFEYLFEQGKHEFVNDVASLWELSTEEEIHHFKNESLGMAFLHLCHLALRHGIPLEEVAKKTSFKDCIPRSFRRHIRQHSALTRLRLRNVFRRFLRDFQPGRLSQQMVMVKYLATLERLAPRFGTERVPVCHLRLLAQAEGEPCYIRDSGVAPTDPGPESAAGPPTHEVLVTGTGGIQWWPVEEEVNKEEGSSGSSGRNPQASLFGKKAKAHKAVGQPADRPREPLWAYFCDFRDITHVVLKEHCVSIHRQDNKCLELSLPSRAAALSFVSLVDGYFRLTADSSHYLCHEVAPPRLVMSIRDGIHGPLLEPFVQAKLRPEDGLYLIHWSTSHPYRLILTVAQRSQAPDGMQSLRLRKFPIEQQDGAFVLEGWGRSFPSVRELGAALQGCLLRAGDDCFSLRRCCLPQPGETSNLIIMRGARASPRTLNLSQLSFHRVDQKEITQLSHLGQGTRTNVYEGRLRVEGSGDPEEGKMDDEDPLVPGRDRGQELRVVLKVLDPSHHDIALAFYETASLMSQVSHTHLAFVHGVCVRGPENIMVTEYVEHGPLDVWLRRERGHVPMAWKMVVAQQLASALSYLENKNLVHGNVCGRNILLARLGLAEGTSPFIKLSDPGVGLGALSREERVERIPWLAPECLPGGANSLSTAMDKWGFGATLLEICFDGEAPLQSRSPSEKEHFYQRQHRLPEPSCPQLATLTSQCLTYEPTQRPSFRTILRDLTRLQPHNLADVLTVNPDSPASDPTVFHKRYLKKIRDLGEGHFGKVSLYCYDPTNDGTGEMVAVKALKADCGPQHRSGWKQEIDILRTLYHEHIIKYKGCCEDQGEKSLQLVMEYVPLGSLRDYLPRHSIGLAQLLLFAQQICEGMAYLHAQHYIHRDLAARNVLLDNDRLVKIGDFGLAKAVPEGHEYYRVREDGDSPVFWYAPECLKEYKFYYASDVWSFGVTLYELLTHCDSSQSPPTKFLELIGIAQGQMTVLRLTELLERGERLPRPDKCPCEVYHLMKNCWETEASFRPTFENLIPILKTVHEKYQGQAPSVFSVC
T2 sequence (P04626 23-1255): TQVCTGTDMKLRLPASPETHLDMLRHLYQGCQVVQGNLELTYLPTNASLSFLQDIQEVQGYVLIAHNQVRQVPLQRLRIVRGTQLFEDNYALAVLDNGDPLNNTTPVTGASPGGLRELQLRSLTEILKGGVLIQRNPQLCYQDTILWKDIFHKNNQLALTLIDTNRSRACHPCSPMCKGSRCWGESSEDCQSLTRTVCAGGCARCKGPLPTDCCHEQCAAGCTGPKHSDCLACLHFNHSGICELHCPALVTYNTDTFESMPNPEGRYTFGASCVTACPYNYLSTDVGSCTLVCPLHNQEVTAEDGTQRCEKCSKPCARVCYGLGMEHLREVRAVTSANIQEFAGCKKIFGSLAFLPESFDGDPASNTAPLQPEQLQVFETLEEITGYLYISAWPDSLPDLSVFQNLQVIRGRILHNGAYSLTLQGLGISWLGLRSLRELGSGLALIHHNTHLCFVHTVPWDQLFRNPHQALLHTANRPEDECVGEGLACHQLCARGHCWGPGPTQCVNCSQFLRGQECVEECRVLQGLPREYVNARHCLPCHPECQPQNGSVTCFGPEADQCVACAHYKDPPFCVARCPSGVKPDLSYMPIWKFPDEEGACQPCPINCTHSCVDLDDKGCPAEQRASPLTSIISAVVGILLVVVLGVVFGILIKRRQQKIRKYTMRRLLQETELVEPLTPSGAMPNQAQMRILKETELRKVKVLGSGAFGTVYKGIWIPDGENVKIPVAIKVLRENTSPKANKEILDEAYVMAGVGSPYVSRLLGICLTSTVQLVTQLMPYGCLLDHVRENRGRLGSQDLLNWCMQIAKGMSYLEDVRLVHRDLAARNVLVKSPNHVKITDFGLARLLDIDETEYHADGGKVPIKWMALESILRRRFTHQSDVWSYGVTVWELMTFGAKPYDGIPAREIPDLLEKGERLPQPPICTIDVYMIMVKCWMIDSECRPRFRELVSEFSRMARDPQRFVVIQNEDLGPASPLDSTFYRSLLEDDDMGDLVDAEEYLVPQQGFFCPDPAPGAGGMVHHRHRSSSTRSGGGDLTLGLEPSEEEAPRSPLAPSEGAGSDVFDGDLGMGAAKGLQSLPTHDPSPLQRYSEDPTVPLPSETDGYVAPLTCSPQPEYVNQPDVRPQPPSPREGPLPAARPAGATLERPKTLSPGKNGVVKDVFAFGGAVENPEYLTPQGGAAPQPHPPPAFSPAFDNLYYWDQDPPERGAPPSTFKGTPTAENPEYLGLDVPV

CCN1CCN(c2ccc(Nc3cc(N(C)C(=O)Nc4c(Cl)c(OC)c(Cl)c(OC)c4Cl)ncn3)cc2)CC1 [MPT0L090]
Viability (% of control cells) RT-112 (5 μM) (RT-112 cells [1]): 52.6 % of control cells | Viability (% of control cells) RT-112 (10 μM) (RT-112 cells [1]): 12.7 % of control cells | Viability (% of control cells) PLC5/PRF/5 (5 μM) (PLC/PRF/5 cells): 72.6 % of control cells | Viability (% of control cells) Hep3B (5 μM) (Hep3B cells): 47.1 % of control cells | Viability (% of control cells) SNU-16 (5 μM) (SNU-16 cells): 27.5 % of control cells

CCN1CCN(c2ccc(Nc3cc(N(C)C(=O)Nc4c(Cl)c(OC)cc(OC)c4Cl)ncn3)cc2)CC1 [BGJ-398, 3-(2,6-dichloro-3,5-dimethoxy-phenyl)-1-{6-[4-(4-ethyl-piperazin-1-yl)-phenylamino]-pyrimidin-4-yl}-1-methyl-urea]
IC50 (HUVEC): 50 nM | G0/G1 cell cycle arrest (RT-112 cells [2]): also observed | accumulation of the sub-G1 phase (apoptotic cell death) (RT-112 cells [2]): induced pronounced apoptosis

COc1c(Cl)c(NC(=O)N(C)c2cc(-c3ccc(Cl)cc3)ncn2)c(Cl)c(OC)c1Cl [MPT0L156]
Viability (% of control cells) RT-112 (5 μM) (RT-112 cells [1]): 98.3 % of control cells | Viability (% of control cells) RT-112 (10 μM) (RT-112 cells [1]): 34.8 % of control cells | Viability (% of control cells) PLC5/PRF/5 (5 μM) (PLC/PRF/5 cells): 44.4 % of control cells | Viability (% of control cells) Hep3B (5 μM) (Hep3B cells): 54.3 % of control cells | Viability (% of control cells) SNU-16 (5 μM) (SNU-16 cells): 76.7 % of control cells

COc1c(Cl)c(NC(=O)N(C)c2cc(-c3ccc(F)cc3)ncn2)c(Cl)c(OC)c1Cl [MPT0L155]
Viability (% of control cells) RT-112 (5 μM) (RT-112 cells [1]): 92.6 % of control cells | Viability (% of control cells) RT-112 (10 μM) (RT-112 cells [1]): 44.4 % of control cells | Viability (% of control cells) PLC5/PRF/5 (5 μM) (PLC/PRF/5 cells): 55.3 % of control cells | Viability (% of control cells) Hep3B (5 μM) (Hep3B cells): 72.8 % of control cells | Viability (% of control cells) SNU-16 (5 μM) (SNU-16 cells): 80.5 % of control cells

N.N.[Cl][Pt][Cl] [cisplatin, reference compound]
tumor growth inhibition (% TGI) (RT-112 tumor xenografts; 5 mg/kg, qwk): 56.3%

COc1c(Cl)c(NC(=O)N(C)c2cc(-c3ccc(C#N)cc3)ncn2)c(Cl)c(OC)c1Cl [MPT0L152]
Viability (% of control cells) RT-112 (10 μM) (RT-112 cells [1]): 55.3 % of control cells

CCN1CCN(c2ccc(Nc3ncnc(N(C)C(=O)Nc4c(Cl)c(OC)c(Cl)c(OC)c4Cl)n3)cc2)CC1 [MPT0L145]
IC50 (RT-112 cells [1]; Homo sapiens, RT-112 (bladder)): 1630 ± 10 nM | Viability (% of control cells) RT-112 (5 μM) (RT-112 cells [1]): 33.4 % of control cells | Viability (% of control cells) RT-112 (10 μM) (RT-112 cells [1]): 8.5 % of control cells | IC50 (RT4 cells): 4000 ± 580 nM | IC50 (T24 cells): 6000 ± 500 nM | IC50 (HepG2 cells): 1180 ± 160 nM | IC50 (PLC/PRF/5 cells; Homo sapiens, PLC/PRF/5 (liver)): 1480 ± 300 nM | Viability (% of control cells) PLC5/PRF/5 (5 μM) (PLC/PRF/5 cells): 20.6 % of control cells | Viability (% of control cells) Hep3B (5 μM) (Hep3B cells): 66.2 % of control cells | IC50 (SNU-16 cells; Homo sapiens, SNU-16 (gastric)): 650 ± 70 nM | Viability (% of control cells) SNU-16 (5 μM) (SNU-16 cells): 36.9 % of control cells | IC50 (KMS-11 cells): 2050 ± 110 nM | IC50 (RPMI-8226 cells): 8510 ± 1770 nM | IC50 (FUDDLS cells): 4740 ± 490 nM | IC50 (HCT-116 cells): 6120 ± 10 nM | IC50 (A549 cells): 5970 ± 100 nM | IC50 (MCF-7 cells): 5980 ± 680 nM | IC50 (MDA-MB-231 cells): 6040 ± 260 nM | IC50 ([3]; mean over FGFR-dependent cell lines, read-out: mean IC50 in FGFR-dependent cells): 1830 nM | IC50 ([3]; mean over FGFR-independent cell lines, read-out: mean IC50 in FGFR-independent cells): 6740 nM | auto-phosphorylation of FGFR1 and FGFR3 and docking protein FRS2 ([4]; 1 h): exerted inhibitory activity | phosphorylation of ERK and AKT ([4]; 8 h): fully repressed | G0/G1 cell cycle arrest (RT-112 cells [2]): induced G0/G1 cell cycle arrest to a dramatic extent | accumulation of the sub-G1 phase (apoptotic cell death) (RT-112 cells [2]): did not promote accumulation of the sub-G1 phase | senescence (β-galactosidase activity) (RT-112 cells [5]): no appreciable senescence | conversion of LC3B-I to LC3B-II [6]: induced the conversion of LC3B-I to LC3B-II in a time- and concentration-dependent manner | tumor growth inhibition (% TGI) (RT-112 tumor xenografts; 5 mg/kg, qd): 61.4% | tumor growth inhibition (% TGI) (RT-112 tumor xenografts; 10 mg/kg, qd): 74.6% | safety from assessment of body weight loss after treatment (RT-112 tumor xenografts; compared with cisplatin): better safety | Kd (CSF1R): 340 nM | Kd (Erbb2): 10000 nM | Kd (FGFR1): 130 nM | Kd (FGFR2): 670 nM | Kd (FGFR3): 270 nM | Kd (FGFR4): 7500 nM | Kd (FLT3): 1300 nM | Kd (PDGFRB): 680 nM | Kd (TYK2): 660 nM | Kd (VEGFR2): 3100 nM
